Source: patent US20230364070A1, “PYRROLO[3,2-C]PYRIDIN-4-ONE DERIVATIVES USEFUL IN THE TREATMENT OF CANCER” (Scorpion Therapeutics, Inc., priority 2020, published 2023)

Legend:
Format in all cases: cell-based
[1] = target: T1, Ba/F3 cells with EGFR exon 20 ASV Ins V769_D770 (Homo sapiens, UniProt P00533, INS769ASV); experiment: EGFR activity: Ba/F3 cell viability (CellTiter-Glo, 72 h), EGFR exon 20 ASV insertion; settings: EGFR exon 20 ASV Ins V769_D770, cell viability, read-out: BaF3 ASV IC50
T1 construct: expressed in transfected cells; host or cells: Ba/F3 (murine pro-B cells), retroviral transduction, puromycin selection, IL3-independent pool
T1 sequence (P00533 with tags, fused parts or gaps INS769ASV): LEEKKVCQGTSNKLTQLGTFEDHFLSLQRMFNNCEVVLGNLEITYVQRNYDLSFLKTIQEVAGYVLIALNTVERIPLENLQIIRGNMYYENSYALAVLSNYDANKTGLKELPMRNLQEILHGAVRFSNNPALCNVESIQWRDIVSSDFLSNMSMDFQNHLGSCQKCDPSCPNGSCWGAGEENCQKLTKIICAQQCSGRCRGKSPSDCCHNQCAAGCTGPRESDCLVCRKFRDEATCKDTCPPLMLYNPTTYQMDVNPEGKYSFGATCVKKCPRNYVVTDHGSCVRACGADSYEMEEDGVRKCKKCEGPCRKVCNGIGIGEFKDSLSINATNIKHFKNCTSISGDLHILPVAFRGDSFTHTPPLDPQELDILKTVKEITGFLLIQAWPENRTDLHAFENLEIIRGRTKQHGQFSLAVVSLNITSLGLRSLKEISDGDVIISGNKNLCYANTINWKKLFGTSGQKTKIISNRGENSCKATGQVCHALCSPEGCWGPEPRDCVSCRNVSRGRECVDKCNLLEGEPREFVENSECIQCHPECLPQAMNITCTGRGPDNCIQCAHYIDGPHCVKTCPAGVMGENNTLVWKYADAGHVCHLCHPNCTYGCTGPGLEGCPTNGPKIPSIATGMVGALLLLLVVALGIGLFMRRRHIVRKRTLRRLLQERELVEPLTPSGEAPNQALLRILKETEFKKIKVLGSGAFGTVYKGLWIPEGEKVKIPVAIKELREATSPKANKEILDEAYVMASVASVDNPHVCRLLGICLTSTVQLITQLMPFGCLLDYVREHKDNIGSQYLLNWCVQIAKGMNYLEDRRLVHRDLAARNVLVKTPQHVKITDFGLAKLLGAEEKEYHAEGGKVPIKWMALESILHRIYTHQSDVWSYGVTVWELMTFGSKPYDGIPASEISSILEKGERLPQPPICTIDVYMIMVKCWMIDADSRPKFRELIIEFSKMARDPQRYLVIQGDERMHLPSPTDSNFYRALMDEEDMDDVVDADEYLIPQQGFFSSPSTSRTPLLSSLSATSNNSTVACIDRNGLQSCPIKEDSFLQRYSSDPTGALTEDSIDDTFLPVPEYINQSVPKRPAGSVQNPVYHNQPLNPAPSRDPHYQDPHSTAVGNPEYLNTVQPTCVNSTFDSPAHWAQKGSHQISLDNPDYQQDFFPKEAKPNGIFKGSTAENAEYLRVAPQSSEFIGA

Ba/F3 cells with EGFR WT = target: T2, Ba/F3 cells with EGFR WT (Homo sapiens, UniProt P00533); experiment: EGFR activity: Ba/F3 cell viability (CellTiter-Glo, 72 h), EGFR WT; settings: read-out: BaF3 WT IC50
T2 construct: expressed in transfected cells; host or cells: Ba/F3 (murine pro-B cells), retroviral transduction, puromycin selection, maintained with EGF
T2 sequence (P00533 25-1210): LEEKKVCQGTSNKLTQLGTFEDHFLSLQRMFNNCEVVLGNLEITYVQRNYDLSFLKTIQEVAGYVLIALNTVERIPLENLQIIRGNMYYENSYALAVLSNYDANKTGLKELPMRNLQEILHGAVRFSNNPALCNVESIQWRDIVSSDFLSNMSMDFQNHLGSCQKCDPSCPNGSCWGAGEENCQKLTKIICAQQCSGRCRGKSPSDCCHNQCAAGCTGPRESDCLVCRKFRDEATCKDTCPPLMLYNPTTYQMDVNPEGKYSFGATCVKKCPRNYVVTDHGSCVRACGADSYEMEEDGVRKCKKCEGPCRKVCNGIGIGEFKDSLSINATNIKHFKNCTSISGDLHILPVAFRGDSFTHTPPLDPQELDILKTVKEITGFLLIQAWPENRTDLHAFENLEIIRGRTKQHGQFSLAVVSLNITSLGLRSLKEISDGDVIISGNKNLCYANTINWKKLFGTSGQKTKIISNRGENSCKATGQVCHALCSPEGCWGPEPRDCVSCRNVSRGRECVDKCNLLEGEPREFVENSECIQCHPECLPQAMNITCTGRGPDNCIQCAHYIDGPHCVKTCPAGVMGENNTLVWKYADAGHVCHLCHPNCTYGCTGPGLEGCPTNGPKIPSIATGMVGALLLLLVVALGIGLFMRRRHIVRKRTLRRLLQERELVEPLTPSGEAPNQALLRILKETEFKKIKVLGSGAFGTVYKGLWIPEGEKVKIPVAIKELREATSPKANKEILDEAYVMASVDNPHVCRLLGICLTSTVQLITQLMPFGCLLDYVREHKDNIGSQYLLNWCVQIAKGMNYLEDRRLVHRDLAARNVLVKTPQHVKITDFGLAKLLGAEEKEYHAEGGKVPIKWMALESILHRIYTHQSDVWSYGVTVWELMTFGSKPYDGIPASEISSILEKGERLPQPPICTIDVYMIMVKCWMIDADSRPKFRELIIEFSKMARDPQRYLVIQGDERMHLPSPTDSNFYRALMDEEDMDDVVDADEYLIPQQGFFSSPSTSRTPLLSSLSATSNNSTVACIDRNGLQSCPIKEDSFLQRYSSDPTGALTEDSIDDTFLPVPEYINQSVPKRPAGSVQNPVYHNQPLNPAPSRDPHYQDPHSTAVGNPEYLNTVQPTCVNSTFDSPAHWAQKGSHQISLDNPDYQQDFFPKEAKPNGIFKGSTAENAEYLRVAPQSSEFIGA

pEGFR in CUTO14 cells = target: T3, pEGFR in CUTO14 cells (Homo sapiens, UniProt P00533, DUP767-769); experiment: Inhibitor activity on EGFR phosphorylation (pEGFR AlphaLISA, 2 h), CUTO14 cells
T3 construct: endogenous in cells; host or cells: CUTO14 cells
T3 sequence (P00533 with tags, fused parts or gaps DUP767-769): as the sequence (P00533 with tags, fused parts or gaps INS769ASV) above
Description: CUTO14 cells were obtained from Dr. Robert C. Doebele at the University of Colorado.
Shake 350 rpm for 1 hr in the dark • 3.4 Prepare donor mix under low light conditions prior to use. Dispense 5 μL of donor mix to all the wells. Mix well on the shaker, seal and wrap in aluminum foil and incubate 1.5 hrs at room temperature in the dark • 3.5 Transfer 18.5 μL mixture to OptiPlate 384, and read using an Envision.

[2] = target: T4, Ba/F3 cells with EGFR exon 20 NPG Ins D770_N771 (Homo sapiens, UniProt P00533, INS770NPG); experiment: EGFR activity: Ba/F3 cell viability (CellTiter-Glo, 72 h), EGFR exon 20 NPG insertion; settings: EGFR exon 20 NPG Ins D770_N771, cell viability, read-out: BaF3 NPG IC50
T4 construct: expressed in transfected cells; host or cells: Ba/F3 (murine pro-B cells), retroviral transduction, puromycin selection, IL3-independent pool
T4 sequence (P00533 with tags, fused parts or gaps INS770NPG): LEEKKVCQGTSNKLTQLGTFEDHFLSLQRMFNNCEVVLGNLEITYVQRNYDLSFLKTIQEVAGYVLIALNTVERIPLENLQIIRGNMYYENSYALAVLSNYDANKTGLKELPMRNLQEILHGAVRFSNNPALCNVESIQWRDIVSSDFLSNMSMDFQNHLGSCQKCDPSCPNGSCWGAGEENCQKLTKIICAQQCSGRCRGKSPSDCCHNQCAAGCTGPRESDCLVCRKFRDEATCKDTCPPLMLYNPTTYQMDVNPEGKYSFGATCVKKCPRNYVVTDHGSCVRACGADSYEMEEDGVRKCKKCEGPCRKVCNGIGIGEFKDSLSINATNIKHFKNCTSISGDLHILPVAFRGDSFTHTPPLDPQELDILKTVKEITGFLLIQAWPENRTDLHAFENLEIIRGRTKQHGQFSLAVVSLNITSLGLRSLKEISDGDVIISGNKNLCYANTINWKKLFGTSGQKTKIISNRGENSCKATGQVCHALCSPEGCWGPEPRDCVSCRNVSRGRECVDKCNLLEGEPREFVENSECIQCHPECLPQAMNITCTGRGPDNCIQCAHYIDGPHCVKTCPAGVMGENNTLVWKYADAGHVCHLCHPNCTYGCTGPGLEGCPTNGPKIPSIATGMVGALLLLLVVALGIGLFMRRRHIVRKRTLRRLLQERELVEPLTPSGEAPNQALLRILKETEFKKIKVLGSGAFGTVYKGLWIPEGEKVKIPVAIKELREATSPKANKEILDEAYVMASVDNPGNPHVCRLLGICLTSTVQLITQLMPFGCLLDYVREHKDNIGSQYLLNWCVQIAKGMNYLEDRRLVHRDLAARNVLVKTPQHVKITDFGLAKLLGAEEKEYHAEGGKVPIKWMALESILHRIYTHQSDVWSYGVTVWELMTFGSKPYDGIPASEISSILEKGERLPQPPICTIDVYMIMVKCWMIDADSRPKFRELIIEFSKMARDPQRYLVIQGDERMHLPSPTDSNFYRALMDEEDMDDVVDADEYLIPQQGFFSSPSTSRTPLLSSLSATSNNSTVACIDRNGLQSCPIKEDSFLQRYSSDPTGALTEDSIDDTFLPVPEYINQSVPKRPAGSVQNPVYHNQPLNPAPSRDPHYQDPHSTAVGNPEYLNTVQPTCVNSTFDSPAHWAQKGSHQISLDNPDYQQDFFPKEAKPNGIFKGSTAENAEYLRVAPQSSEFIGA

Structure (SMILES) | IC50 [1] | IC50 (Ba/F3 cells with EGFR WT) | IC50 (pEGFR in CUTO14 cells) | IC50 [2]
CC#CC(=O)N1CC[C@@]1(C)COc1cnccc1-c1[nH]c2c(c1Nc1cccc(F)c1OC)C(=O)NCC2 [compound 357] | 100 to 1000 nM | > 1000 nM | 100 to 1000 nM | 100 to 1000 nM
CC#CC(=O)N1CC[C@@]1(C)COc1cnccc1-c1[nH]c2c(c1Nc1cccc(Cl)c1OC)C(=O)NCC2 [compound 358] | 100 to 1000 nM | > 1000 nM | 100 to 1000 nM | 100 to 1000 nM
C=C(F)C(=O)N1CC[C@@H]1COc1cnccc1-c1[nH]c2c(c1Nc1cc(F)cc(F)c1OC)C(=O)NCC2 [compound 365] | 100 to 1000 nM | 100 to 1000 nM | 100 to 1000 nM | 100 to 1000 nM
CC#CC(=O)N1CC[C@@H]1C#Cc1cnccc1-c1[nH]c2c(c1Nc1cccc(F)c1OC)C(=O)NCC2 [compound 373] | < 100 nM | < 100 nM | < 100 nM | < 100 nM
CC#CC(=O)N1CC[C@H]1C#Cc1cnccc1-c1[nH]c2c(c1Nc1cccc(F)c1OC)C(=O)NCC2 [compound 374] | < 100 nM | 100 to 1000 nM | < 100 nM | < 100 nM
C=CC(=O)NC1(C#Cc2cnccc2-c2[nH]c3c(c2Nc2cccc(Cl)c2OC)C(=O)NCC3)CCOCC1 [compound 382] | < 100 nM | 100 to 1000 nM | < 100 nM | < 100 nM
C=CC(=O)NC1(C#Cc2cnccc2-c2[nH]c3c(c2Nc2cccc(F)c2OC)C(=O)NCC3)CCOCC1 [compound 383] | 100 to 1000 nM | > 1000 nM | 100 to 1000 nM | < 100 nM
C=CC(=O)NC(C)(C)C#Cc1cnccc1-c1[nH]c2c(c1Nc1cccc(F)c1C)C(=O)NCC2 [compound 385] | < 100 nM | < 100 nM | < 100 nM | < 100 nM
C=CC(=O)N[C@@]1(C#Cc2cnccc2-c2[nH]c3c(c2Nc2cccc(F)c2C)C(=O)NCC3)CCOC1 [compound 386] | < 100 nM | 100 to 1000 nM | < 100 nM | < 100 nM
C=CC(=O)N[C@]1(C#Cc2cnccc2-c2[nH]c3c(c2Nc2cccc(F)c2C)C(=O)NCC3)CCOC1 [compound 387] | < 100 nM | 100 to 1000 nM | < 100 nM | < 100 nM
COc1c(Cl)cccc1Nc1c(-c2ccncc2C#CC(C)(C)NC(=O)/C=C/CN(C)C)[nH]c2c1C(=O)NCC2 [compound 388] | < 100 nM | 100 to 1000 nM | < 100 nM | < 100 nM
C=C(F)C(=O)NC(C)(C)C#Cc1cnccc1-c1[nH]c2c(c1Nc1cccc(F)c1OC)C(=O)NCC2 [compound 389] | < 100 nM | 100 to 1000 nM | < 100 nM | < 100 nM
C=C(F)C(=O)NC(C)(C)C#Cc1cnccc1-c1[nH]c2c(c1Nc1cccc(Cl)c1OC)C(=O)NCC2 [compound 390] | < 100 nM | 100 to 1000 nM | < 100 nM | < 100 nM
COc1c(F)cccc1Nc1c(-c2ccncc2C#CC(C)(C)NC(=O)/C=C/CN2CCOCC2)[nH]c2c1C(=O)NCC2 [compound 391] | 100 to 1000 nM | > 1000 nM | 100 to 1000 nM | 100 to 1000 nM
COc1c(F)cccc1Nc1c(-c2ccncc2C#CC(C)(C)NC(=O)/C=C/CN2CCCC2)[nH]c2c1C(=O)NCC2 [compound 392] | < 100 nM | 100 to 1000 nM | < 100 nM | < 100 nM
COc1c(F)cccc1Nc1c(-c2ccncc2C#CC(C)(C)NC(=O)/C=C/CN2CC(OC)C2)[nH]c2c1C(=O)NCC2 [compound 393] | < 100 nM | 100 to 1000 nM | < 100 nM | < 100 nM

Structure (SMILES) | IC50 [1] | IC50 (Ba/F3 cells with EGFR WT) | IC50 (pEGFR in CUTO14 cells) | IC50 [2]
COc1c(F)cccc1Nc1c(-c2ccncc2C#CC(C)(C)NC(=O)/C=C/CN[C@@H]2CCOC2)[nH]c2c1C(=O)NCC2 [compound 394] | 100 to 1000 nM | > 1000 nM | 100 to 1000 nM | 100 to 1000 nM
COc1c(F)cccc1Nc1c(-c2ccncc2C#CC(C)(C)NC(=O)/C=C/CN[C@H]2CCOC2)[nH]c2c1C(=O)NCC2 [compound 395] | 100 to 1000 nM | > 1000 nM | 100 to 1000 nM | 100 to 1000 nM
C=CC(=O)NC1(C#Cc2cnccc2-c2[nH]c3c(c2Nc2cccc(Cl)c2OC)C(=O)NCC3)CC(F)(F)C1 [compound 400] | < 100 nM | 100 to 1000 nM | < 100 nM | < 100 nM
C=CC(=O)NC1(C#Cc2cnccc2-c2[nH]c3c(c2Nc2cccc(F)c2OC)C(=O)NCC3)CC(F)(F)C1 [compound 401] | < 100 nM | 100 to 1000 nM | < 100 nM | < 100 nM
CC#CC(=O)N1CC[C@@H]1COc1cnccc1-c1[nH]c2c(c1Nc1cccc(F)c1Cl)C(=O)NCC2 [compound 406] | < 100 nM | < 100 nM | < 100 nM | < 100 nM
CC#CC(=O)N1CC[C@@H]1COc1cnccc1-c1[nH]c2c(c1Nc1cccc(Cl)c1F)C(=O)NCC2 [compound 407] | < 100 nM | < 100 nM | < 100 nM | < 100 nM
C=CC(=O)NC1(C#Cc2cnccc2-c2[nH]c3c(c2Nc2cccc(Cl)c2OC)C(=O)NCC3)CCN(C)CC1 [compound 411] | 100 to 1000 nM | > 1000 nM | 100 to 1000 nM | 100 to 1000 nM
COc1c(Cl)cccc1Nc1c(-c2ccncc2C#CC2(NC(=O)/C=C/CN(C)C)COC2)[nH]c2c1C(=O)NCC2 [compound 416] | 100 to 1000 nM | > 1000 nM | < 100 nM | 100 to 1000 nM
COc1c(F)cccc1Nc1c(-c2ccncc2C#CC2(NC(=O)/C=C/CN(C)C)COC2)[nH]c2c1C(=O)NCC2 [compound 417] | 100 to 1000 nM | > 1000 nM | 100 to 1000 nM | 100 to 1000 nM
COc1c(F)cccc1Nc1c(-c2ccncc2C#C[C@]2(NC(=O)/C=C/CN(C)C)CCOC2)[nH]c2c1C(=O)NCC2 [compound 418] | 100 to 1000 nM | > 1000 nM | 100 to 1000 nM | 100 to 1000 nM
COc1c(F)cccc1Nc1c(-c2ccncc2C#C[C@@]2(NC(=O)/C=C/CN(C)C)CCOC2)[nH]c2c1C(=O)NCC2 [compound 419] | 100 to 1000 nM | > 1000 nM | 100 to 1000 nM | 100 to 1000 nM
COc1c(Cl)cccc1Nc1c(-c2ccncc2C#C[C@@]2(NC(=O)/C=C/CN(C)C)CCOC2)[nH]c2c1C(=O)NCC2 [compound 420] | < 100 nM | 100 to 1000 nM | < 100 nM | < 100 nM
COc1c(Cl)cccc1Nc1c(-c2ccncc2C#C[C@]2(NC(=O)/C=C/CN(C)C)CCOC2)[nH]c2c1C(=O)NCC2 [compound 421] | < 100 nM | > 1000 nM | < 100 nM | < 100 nM
COc1c(F)cccc1Nc1c(-c2ccncc2OC[C@@]2(C)CCN2C(=O)/C=C/CN(C)C)[nH]c2c1C(=O)NCC2 [compound 422] | < 100 nM | 100 to 1000 nM | < 100 nM | < 100 nM
COc1c(F)cccc1Nc1c(-c2ccncc2OC[C@]2(C)CCN2C(=O)/C=C/CN(C)C)[nH]c2c1C(=O)NCC2 [compound 423] | < 100 nM | > 1000 nM | < 100 nM | < 100 nM
COc1c(Cl)cccc1Nc1c(-c2ccncc2OC[C@]2(C)CCN2C(=O)/C=C/CN(C)C)[nH]c2c1C(=O)NCC2 [compound 424] | < 100 nM | 100 to 1000 nM | < 100 nM | < 100 nM
